The values that follow come from PubChem BioAssay (NCI).

Values joined by “and” are separate entries in the source; they are usually repeats but may differ in a detail not shown here. Equal values may be shown once.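 Following 48 hours of exposure in 96-well plates, responses at five concentrations were used to interpolate endpoints linearly. Here, GI50 denotes the concentration required for 50% inhibition of growth. TGI: concentration producing complete growth inhibition.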 A value given as a limit tells only on which side of the number the result lay.

What all share (assay): NCI tumour cell line growth inhibition, 48 h
Assay [1] concerns HT29 colon.
The test system of assay [2] is SK-MEL-2 melanoma.
In assay [3] the test system is SNB-75 CNS.
The test system of assay [4] is ACHN renal.
Assay [5] concerns M14 melanoma.
The subject of assay [6] is EKVX NSCLC.
Assay [7] concerns A549 NSCLC.
Assay [8] relates to MOLT-4 leukemia.
Assay [9] has as its system MCF7 breast.

In the case of `Cc1ccc(NC(=O)C(=O)CC(=O)c2c(C)n([O-])c3ccccc3[n+]2=O)cc1C`, the TGI in assay [1], in assay [2], in assay [3], in assay [4], in [5] and in [6] was > 100 µM in each case. In addition, the TGI in [7] was > 100 µM.

`CCCCCCCC1(c2ccc(N)cc2)CCC(=O)NC1=O` (stereo unspecified): the TGI in assay [2] was > 100 µM; in [3], 96.2 µM; in assay [4] it was 67.3 µM; in [8], 65.7 µM; in assay [5], > 100 µM; in [6] it was > 100 µM. The TGI in assay [7] was > 100 µM.

Take `CC1OC(=O)C(O)=C1O` (stereo unspecified): the TGI in assay [1], in assay [2], in assay [3], in assay [4], in assay [8] and in assay [5] was > 100 µM throughout. In addition, the TGI in [6] and in [7] was > 100 µM throughout.

Take `CCN(CC)CC1CCCCN1CC(=O)N1CC(C)C(=O)Nc2ccccc21` (stereo unspecified): the TGI in assay [1], in assay [4], in assay [8], in [5] and in assay [7] was > 100 µM in each case.

Take `CC1=C(C(=O)Nc2ccccc2)C(c2ccccc2Cl)C(C(=O)Nc2ccccc2)=C(C)N1`: the TGI turned out to be 37.9 µM in assay [1]; 33.1 µM in assay [2]; 76.4 µM in assay [3]; 94.1 µM in assay [4]; 60.1 µM in assay [8]; 33.3 µM in assay [5]. Also, the TGI in [6] was 37.7 µM; in assay [7], > 100 µM.

On to `Clc1ccc(-c2c3ccc(=[N+]4CCCCC4)cc-3oc3cc(N4CCCCC4)ccc23)cc1`, for which the GI50 was 0.0494 µM in assay [3], 0.0909 µM in [4], 0.159 µM in assay [8] and 0.0696 µM in [5]. The TGI in [3] is 0.333 µM; in assay [4] it was 0.229 µM; in assay [8] it was 0.741 µM; in assay [5], 0.209 µM.

In the case of `O=C(O)CCNS(=O)(=O)c1ccc2ccccc2c1`, the TGI in assay [1], in assay [2], in assay [3], in assay [4], in [8] and in assay [5] was > 100 µM each time. Further, the TGI in [6] and in [7] was > 100 µM throughout.

As to `C1CCCCc2nc3c(nc2CCC1)c1nc2c(nc1c1nc4c(nc31)CCCCCCCC4)CCCCCCCC2`, the TGI in [1], in [2], in assay [3], in assay [4], in assay [8] and in [5] was > 100 µM throughout. The TGI in assay [7] is > 100 µM.

With `COCCOc1cc(C)cc(/C=C(C)/C=C/C2=C(C)CCCC2(C)C)n1`, the TGI in assay [1], in assay [2], in [3], in [4], in [8] and in assay [5] was > 100 µM in each case. Also, the TGI in assay [6] and in [7] was > 100 µM each time.

For the compound `COc1ccc(C2=Nc3ccccc3SC(C)C2)cc1OC` (stereo unspecified), the TGI in assay [1] came out at 37.2 µM; in assay [2], 72.2 µM; in [3], 35 µM; in [4], 58.1 µM; in assay [8] it was 34.8 µM; in [5], 33 µM. For the same compound, the TGI in [6] was 56.5 µM.

Consider `N#CC(C(=O)CCCC(=O)Nc1ccc(Cl)cc1Cl)c1ccccc1` (stereo unspecified), for which the TGI in assay [1], in [2], in assay [4], in [8], in [5] and in assay [6] was > 100 µM each time. For the same compound, the TGI in assay [7] was > 100 µM.

Turning to `O=C(C(=O)n1ncc(Cl)c(Cl)c1=O)n1ncc(Cl)c(Cl)c1=O`, the TGI is 34 µM in assay [1]; 74.9 µM in [2]; 97.2 µM in assay [3]; 32.9 µM in [4]; 43.7 µM in [8]; > 68.7 µM in assay [5]. Also, the TGI in [6] is > 83.8 µM; in assay [7], > 100 µM.

In the case of `CCCCCC(=O)Nc1nc2nc[nH]c2c(=O)[nH]1`, the TGI in assay [1], in assay [2], in [3], in assay [4], in assay [8] and in [5] was > 100 µM throughout. Further, the TGI in [6] and in assay [7] was > 100 µM each time.

Regarding `COC1CC(O)C(OC(=O)c2ccccc2)C(C)O1` (stereo unspecified), the TGI in assay [1], in assay [8], in assay [5] and in assay [7] was > 100 µM each time.

Take `COc1ccc2oc3c(OC)c(OC)c(OC)cc3c(=O)c2c1`: the TGI is > 100 µM in assay [1]; > 100 µM in [2]; 84.5 µM in assay [3]; > 100 µM in [4]; > 100 µM in assay [8]; > 100 µM in assay [5]. Further, the TGI in [6] and in assay [7] was > 100 µM each time.

`Cc1ccc(C)c(N2C(=O)C(=O)C(c3nc4ccccc4o3)C(=O)C2=O)c1`: the TGI in assay [1], in assay [2], in assay [3], in [4], in [8] and in assay [5] was > 100 µM throughout. Further, the TGI in assay [6] and in assay [7] was > 100 µM throughout.

Take `CCC(C)CC(C)CC(C)/C=C(\C)C1=C(C)CC(C)(O)O1` (stereo unspecified): the TGI in [1], in assay [3], in assay [4], in assay [8], in assay [5] and in [6] was > 100 µM each time. Moreover, the TGI in assay [7] is > 100 µM.

Regarding `CCOC(=O)c1cc(-c2ccc(-c3cc(C(=O)OCC)c(C#N)c(N)c3C#N)cc2)c(C#N)c(N)c1C#N`, the TGI in [1], in assay [2], in assay [4], in assay [8], in assay [5] and in assay [6] was > 100 µM each time. For the same compound, the TGI in [7] was > 100 µM.

As for `Cc1cccc(C(=O)O)c1C(=O)c1cccc2ccccc12`, the TGI in assay [1], in assay [2], in assay [3], in assay [4], in assay [8] and in assay [5] was > 100 µM in each case. For the same compound, the TGI in assay [6] and in assay [7] was > 100 µM throughout.

As to `CCCCCC(O)C(O)CCC[C@H](O)[C@H]1CC[C@H]([C@H]2CC[C@H]([C@H](O)CCCCCCCCCCCCC3=C[C@H](C)OC3=O)O2)O1` (stereo partly specified), the TGI in [1] was 8.31 µM; in assay [2] it was 5.16 µM and 37.4 µM; in [3], 37.9 µM; in assay [4], 6.27 µM and 20.8 µM; in assay [5], 29.9 µM; in assay [6], 26.4 µM. Further, the results for the TGI in assay [7] and in assay [9] were > 100 µM and 31.4 µM, respectively. Also, the GI50 is 15.8 µM in [2]; 15.2 µM in [3]; 2.41 µM in assay [4]; 6.98 µM in assay [5]; 6.94 µM in [6]; 3.48 µM in assay [7]. For the same compound, in [9], the GI50 is 3.78 µM.

Regarding `CCC[CH2][Sn]([CH2]CCC)([S]C#N)[S]C#N`, the GI50 in assay [1] is 2.77 µM; in assay [2] it was 0.457 µM; in assay [3], 0.592 µM; in assay [4] it was 1.24 µM; in [8] it was 0.462 µM; in assay [5], 1.49 µM. Further, the GI50 is 1.36 µM in assay [6] and 3.78 µM in assay [7]. Also, the TGI in [1] amounted to 8.51 µM; in assay [2], 1.68 µM; in assay [3], 2.08 µM; in assay [4] it was 2.48 µM; in [8], 3.23 µM; in [5], 3.48 µM. Further, the results for the TGI in assay [6] and in assay [7] were 2.99 µM and 11.9 µM, respectively.

For `N#Cc1ccccc1NC(=O)C(=O)C1NC(=S)NC1=O` (stereo unspecified), the TGI in assay [1], in assay [3], in assay [4], in assay [8], in [5] and in assay [6] was > 100 µM each time. For the same compound, the TGI in assay [7] was > 100 µM.

Regarding `CCOC(=O)/C(=C/c1cccc(Cl)c1)N(CC)CC`, the TGI in assay [1] is > 100 µM; in assay [2] it was 68.5 µM; in [3] it was > 100 µM; in assay [4], > 100 µM; in assay [8] it was > 100 µM; in [5], > 100 µM. The TGI in assay [6] and in assay [7] was > 100 µM throughout.

Turning to `CC1=C(SC#N)S(=O)(=O)N(c2ccccc2)C(C)=C1SC#N`, the TGI in assay [1] was > 100 µM; in [2], > 100 µM; in assay [3], 63.9 µM; in assay [4], > 100 µM; in assay [8] it was 57.8 µM; in assay [7] it was > 100 µM.

As to `Cc1ccc(-c2nc(/C=N/Nc3cc(C)nc4ccc(Cl)cc34)c(C)o2)cc1`, the GI50 in [1] was 0.664 µM; in [2], 2.01 µM; in assay [3], 1.55 µM; in assay [4], 1.68 µM; in assay [8] it was 2.02 µM; in [5], 1.8 µM. Moreover, the GI50 in [6] was 1.7 µM; in assay [7], 1.83 µM; in assay [9] it was 1.63 µM. The TGI worked out at 2.5 µM in assay [1]; 4.11 µM in assay [2]; 3.2 µM in assay [3]; 3.05 µM in [4]; 4.88 µM in [8]; 3.49 µM in assay [5]. In addition, the figures for the TGI in [6], in [7] and in assay [9] were 3.21 µM, 3.77 µM and 3.2 µM, respectively.

Turning to `Cc1ccc2nc(NC(=O)C(=O)C(C#N)c3ccc(Cl)cc3)sc2c1` (stereo unspecified), the TGI in assay [1], in assay [2], in [3], in assay [4], in [5] and in assay [6] was > 50 µM each time. The TGI in assay [7] is > 50 µM.

Turning to `COc1cc2c(c(OC)c1OC)-c1ccc(SC)c(=O)cc1[C@@H](NCc1ccc([N+](=O)[O-])cc1)CC2`, the TGI in assay [1] is 0.011 µM; in assay [2] it was 19 µM; in assay [3] it was > 100 µM; in [4], > 100 µM; in assay [8] it was > 100 µM; in assay [6], > 100 µM. For the same compound, the TGI in assay [7] is > 100 µM.

Regarding `C/C(CN1C(=O)c2ccccc2C1=O)=N\NS(=O)(=O)c1cccc(C(=O)O)c1`, the TGI in assay [1], in assay [2], in assay [3], in [4], in [8] and in assay [5] was > 100 µM throughout. Further, the TGI in [6] and in [7] was > 100 µM throughout.

For `NC1c2ccccc2Nc2ccccc21`, the TGI in assay [1] came out at 20.4 µM; in assay [2], 29.8 µM; in [3], 24.4 µM; in assay [4], 24.6 µM; in [8], 8.1 µM; in [5], 15.4 µM. The TGI in assay [6] was 20.7 µM; in assay [7], 19.8 µM.

Regarding `CC(C)c1cc(C(C)C)c(S(=O)(=O)N=[N+]=[N-])c(C(C)C)c1`, the TGI in [1], in [3], in assay [4], in [8], in assay [5] and in assay [7] was > 100 µM each time.

Regarding `CC(C)c1cccc(C(C)C)c1N1C(=O)C(=O)C(c2nc3ccccc3o2)C(=O)C1=O`, the TGI in assay [1], in [2], in [3], in assay [4], in assay [5] and in [6] was > 100 µM in each case. For the same compound, the TGI in assay [7] is > 100 µM.
